Marks after values point to notes of the source that are not given here.
Legend:
[1] = Hydrate formation (precipitation from water / storage at 95% RH, XRPD); assay type: physicochemical; details: for Hydrate formation (Yes/No): summary of solid forms of Compound (I), Table 2
From the text: To determine whether the Compound (I) hemiadipate are prone to form hydrates it was investigated if precipitation from water equilibrated over 7 days led to a new crystal form. In addition, it was explored if storage of Compound (I) hemiadipate at 95% RH for 5 months led to change in the crystal form.

[2] = Dynamic Vapour Sorption (DVS), hygroscopicity; assay type: physicochemical; details: for Hygroscopic (Yes/No): summary of solid forms of Compound (I), Table 2; for hygroscopicity (DVS conclusion): RH 0% to 95%, 25° C.
From the text: The vapour sorption can be investigated by DVS analysis.
The vapour sorption was investigated by DVS analysis.

[3] = Intrinsic Dissolution Rate (IDR); assay type: physicochemical; details: 37° C., 10 mg tablet, duplicates
Procedure: Tablets of 10 mg Compound (I) (free base or hemiadipate) were pressed and put into a micro dissolution chamber. It was subsequently measured how fast the substance was dissolved from the well-defined surface of the tablet into the solvent. The length of a full dissolution experiment was 20 min and the IDR was calculated in the range 1-2.5 min, determined as the slope of the dissolution profile in that specific range. The experiment at pH 2 was performed in 0.01 N HCl, at pH 5 in 50 mM acetate buffer and at pH 6.8 in 50 mM phosphate buffer, respectively, all at 37° C. All experiments were performed in duplicates.
Where the tablet was not fully dissolved after end of experiment, the surface was examined by XRPD, to identify if any changes of solid form have occurred during the experiment.

[4] = system: rats; assay: Conditioned Avoidance Response (CAR) in rats, high dopamine state; assay type: in vivo
From the text: The inventors of the present invention put forward the hypothesis that many patients with exacerbated positive symptoms can be expected to have increased striatal dopamine levels. Since the dopamine receptors regulate the dopamine signal by controlling cAMP synthesis and PDE10A regulates the gain of this signal by controlling cAMP degradation, the effect of PDE10A inhibition might be altered in conditions with increased striatal dopamine tonus, such as found in patients with prominent positive symptoms. To investigate this further the effect of compounds of the invention were tested in the CAR assay in rats that were co-dosed with a low dose of d-amphetamine (0.20-0.25 mg/kg) to induce a high dopamine state (FIG. 4). […] Compound (I) was tested alone and in combination with a low dose d-amphetamine to induce a high dopamine state. The efficacy was measured as the mean number of avoidances and results are depicted as mean+/−SEM. […] Bars represent the following dose groups (left to right): 1) Vehicle; 2) d-amphetamine (0.2 mg/kg); 3) Compound (I) (0.6 mg/kg); 4) Compound (I) (0.3 mg/kg)+d-amphetamine (0.2 mg/kg); 5) Compound (I) (0.6 mg/kg)+d-amphetamine (0.2 mg/kg); and 6) Compound (I) (3.0 mg/kg)+d-amphetamine (0.2 mg/kg). ** p<0.01 compared to vehicle. ns=non-significant.

[5] = Solvate formation (shake-flask precipitation in organic solvents, XRPD); assay type: physicochemical; details: 16 organic solvents, equilibration for 4 days
From the text: To determine whether the Compound (I) hemiadipate forms solvates it was investigated if solvate formation could be observed from precipitation in different organic solvents after equilibration for 4 days in the shake-flask method: Compound (I) hemiadipate was precipitated in various organic solvents from a 1:1 mixture of Compound (I) and adipic acid. The tested solvents were: acetone, acetonitrile, methanol, ethanol, 1-propanol, 2-propanol, 1-butanol, 2-butanol, ethyl acetate, isopropyl acetate, methyl isobutyl ketone, tetrahydrofuran, diethylether, N-methylpyrrolidone, dichloromethane, and n-heptane.

Molecule | Hydrate formation (Yes/No) [1] | Hygroscopic (Yes/No) [2] | also measured
Citrate | Yes | Yes | –
Malonate | Yes | Yes | –
Cc1ncc(C)n2nc(CCc3nc(-c4ccccc4)cn3C)nc12 [Compound (I), 5,8-Dimethyl-2-[2-(1-methyl-4-phenyl-1H-imidazol-2-yl)-ethyl]-[1,2,4]triazolo[1,5-a]pyrazine] | – | – | Hydrate formation (Yes/No) ([1]; listed as Free base): Yes; IDR Average ([3]; pH 2, 0.01 N HCl, listed as Compound (I) free base): 1.45 mg/cm^2 × min; IDR Average ([3]; pH 5, 50 mM acetate buffer, listed as Compound (I) free base): 0.101 mg/cm^2 × min; IDR Average ([3]; pH 6.8, 50 mM phosphate buffer, listed as Compound (I) free base): 0.025 mg/cm^2 × min; hygroscopicity (DVS conclusion) ([2]; DVS, listed as free base): very hygroscopic; Hygroscopic (Yes/No) ([2]; listed as Free base): Yes; effect on CAR (mean number of avoidances), combined with d-amphetamine ([4]; Compound (I) 0.3, 0.6, 3.0 mg/kg + d-amphetamine 0.2 mg/kg (high dopamine state)): this effect was abolished; effect on CAR (mean number of avoidances), dosed alone ([4]; Compound (I) alone (0.6 mg/kg), ** p<0.01 compared to vehicle): reduced CAR
Oxalate | Yes | Yes | –
L(+)-tartrate | Yes | – | –
O=C(O)CCC(=O)C(=O)O [2-oxoglutarate] | Yes | Yes | –
Cc1ncc(C)n2nc(CCc3nc(-c4ccccc4)cn3C)nc12.O=C[C@H](O)[C@@H](O)[C@H](O)[C@H](O)C(=O)O [D-glucoronate] | Yes | Yes | –
L(−)-malate | Yes | Yes | –
Cc1ncc(C)n2nc(CCc3nc(-c4ccccc4)cn3C)nc12 [Compound (I) hemiadipate, 5,8-Dimethyl-2-[2-(1-methyl-4-phenyl-1H-imidazol-2-yl)-ethyl]-[1,2,4]triazolo[1,5-a]pyrazine hemiadipate] | No | No | change of crystal form after storage at 95% RH ([1]; 95% RH for 5 months, XRPD): had not changed from the original form; change of crystal form after precipitation from water ([1]; water, equilibrated over 7 days, XRPD): had not changed from the original form; IDR Average ([3]; pH 2, 0.01 N HCl): >2* mg/cm^2 × min; IDR Average ([3]; pH 5, 50 mM acetate buffer): 0.3 mg/cm^2 × min; IDR Average ([3]; pH 6.8, 50 mM phosphate buffer): 0.04 mg/cm^2 × min; vapour sorption ([2]; DVS, 95% RH at 25° C.): less than 0.1%; hygroscopicity (DVS conclusion) ([2]; DVS): non-hygroscopic; solvate formation [5]: does not form solvates
Fumarate | Yes | – | –
Maleate | Yes | Yes | –
Cl [Hydrogen Chloride] | Yes | Yes | –
Cc1ncc(C)n2nc(CCc3nc(-c4ccccc4)cn3C)nc12.O=S(=O)(O)O [Hydrogen sulphate] | Yes | – | –
Tosylate | Yes | Yes | –
Glutarate | Yes | – | –
Br.Cc1ncc(C)n2nc(CCc3nc(-c4ccccc4)cn3C)nc12 [Hydrogen Bromide] | Yes | Yes | –
O=P(O)(O)O [Dihydrogen Phosphate] | Yes | – | –

Reference: US20200140446A1, “5,8-DIMETHYL-2-[2-(1-METHYL-4-PHENYL-1H-IMIDAZOL-2-YL)-ETHYL]-[1,2,4]TRIAZOLO[1,5-A]PYRAZINE HEMIADIPATE” (H. Lundbeck A/S, priority 2018, published 2020)
